Results reported in US11130771B2, “Prodrugs of Naltrexone, Nalmefene and derivatives thereof” (TAIWANJ PHARMACEUTICALS CO., LTD., priority 2018, dated 2021).

Test: Pharmacokinetic Measurement in BALB/c Mice (oral gavage, plasma LC-MS/MS)
Conditions: parent compound after oral administration, compared with prodrug and Naltrexone from prodrug; FIGS. 1 and 2
Procedure: This study tested the bioavailability of different test compounds in rats, by oral gavage administration, at prescribed dose levels.
Male BALB/c mice, body weight approximately 1925 g, were purchased from BioLASCO Taiwan Co., Ltd. and kept in the Animal Laboratory of Industrial
LC-MS/MS: ABSCIEX 4000 QTRAP LC-MS/MS System; Polarity: positive mode; Column: XBridge RP18, 3.5 μm, 4.6×20 mm; Flow rate: 0.7 mL/min; Injection volume: 10 μL; Temperature: Room temperature; Running time: 5 min.
Blood aliquots (40 μL) were collected from jugular vein catheterized BALB/c in tubes coated with K2-EDTA, mixed gently, then kept on ice and centrifuged at 7000×g for 15 minutes at 4° C. The plasma was then harvested and kept frozen at −80° C. until further processing.
The plasma samples were processed using acetonitrile precipitation and analyzed by LC-MS/MS. A plasma calibration curve was generated. […]
The spiked plasma samples were processed together with the unknown plasma samples using the same procedure. The processed plasma samples were stored at −80° C. until the LC-MS/MS analysis, at which time peak areas were recorded, and the concentrations of the test compound in the unknown plasma samples were determined using the respective calibration curve. The reportable linear range of the assay was determined, along with the lower limit of quantitation (LOQ). […]

O=C1CC[C@@]2(O)[C@H]3Cc4ccc(O)c5c4[C@@]2(CCN3CC2CC2)[C@H]1O5 [Naltrexone]
concentration in blood with respect to time: raised rapidly and reached the highest level
